From patent US20220217972A1, “Methods for cryopreservation of sub-millimeter and millimeter scale biological materials” (Regents of the University of Minnesota, priority 2021, published 2022)

What was measured:
[1] = test system: Drosophila melanogaster embryos; experiment: Post cryopreservation survival (hatch rate and adult rate) of embryos; type: in vivo; details: strain M2; for post cryopreservation survival: replacing sorbitol as sugar in dehydration CPA
Method: Step 1. Embryo collection and staging. On day 1, 700-1200 flies at the age of 1-4 days old were used to collect embryos at room temperature. Usually 4 bottles of flies were used, 8 or more bottles were used if needed. Flies were placed in an empty Drosophila bottle covered with a mesh cloth as a cap (FIG. 2A). Embryos were collected in a 1 hour period on a grape juice plate smeared with yeast paste. The first hour collection served as an egg clean-up procedure for the female flies and were abandoned. Disturbance of flies was minimized during embryo collection. Grape juice plates with collected embryos were labeled with the end time point of collection, for instance, 3 pm was used to label the collection from 2 pm to 3 pm. Embryos were placed in a temperature incubator at 20.1±0.05° C. (Heratherm purchased from Thermo Scientific) until reaching the desired stage for cryopreservation. 20° C. was selected so that optimal embryo age for cryopreservation will be achieved during a normal work hour on the following day. In this work, embryo collection occurred in the afternoon and usually 2-4 collections were performed.
Step 2. Dechorionation and permeabilization. On day 2, embryos were washed off from the grape juice plate into a nylon mesh basket and dechorionated in 50% bleach for 2-4 minutes. After rinsing with running tap water for 1-2 minutes to remove excess bleach, embryos along with the mesh basket were briefly blotted on paper towel and placed in the cryobuffer (20 mM NaCl, 2.7 mM KCl, 10 mM Na2HPO4, 1.8 mM KH2PO4, 4 mM MgCl2, 13 mM MgSO4, 60 mM Glycine, 60 mM Glutamic acid and 5 mM Malic acid, pH6.8, sterilized by filtration) in a 35 mm petri dish. Embryos were examined under a dissecting microscope to confirm the removal of chorions. In addition, the gut morphology was evaluated to verify the embryo stage (FIG. 2B).
Before permeabilization, ˜4 ml isopropanol, mixture of D-limonene and heptane (4:1 v/v), and heptane alone were added to three separate 35 mm glass petri dishes in a fume hood. […]
Step 3. […] The percentage of embryos that shrunk was recorded. […]

[2] = test system: Drosophila melanogaster embryos; details: permeable CPAs compared under the same weight concentration; strain M2
Method: (§1) CPA loading and dehydration. Right after permeabilization, a brush was used to break up clumps into individual embryos floating as a monolayer with minimal overlap (FIG. 2B). […] The embryos should remain floating in order to maintain access to oxygen. After 3 min, “wrinkles” on the embryo surface were observed under a dissecting microscope, indicating volumetric shrinkage (i.e., losing water) in response to higher external osmolarity (FIG. 2C). The percentage of embryos that shrunk was recorded. The 13 weight percent EG petri dish was then placed in a humid chamber. At 25 min, embryos were inspected under a dissecting microscope to confirm that they swelled back to their original shape, indicating EG had entered the embryos. The percentage of embryos that swelled back was recorded.
Next, the mesh basket was blotted and placed in 39 weight percent EG+9 weight percent sorbitol solution prepared in cryobuffer on ice (i.e., ˜4° C.) for 9 min This step dehydrates the embryos (i.e., water loss) thereby elevating the intra-embryonic EG concentration to favor vitrification and avoidance of devitrification during the rewarming processes. In general, 5-6 ml dehydration CPA was used in a 35 mm petri dish.
At this point, intra-embryonic CPA concentration was elevated through dehydration by placing the embryos in a high concentration CPA (i.e., ˜39 weight percent) at 4° C. […]

[3] = test system: Drosophila melanogaster embryos; details: 13 weight percent EG in cryobuffer; shrink at 3 min, swelled back at 25 min; correct stage, properly permeabilized
Method: as §1

Row | Structure (SMILES) | post cryopreservation survival [1] | CPA toxicity (post dehydration survival) [2] | embryos that shrink and swell [3] [%] | survival post cryopreservation ([1]; permeable CPAs compared under the same weight concentration)
1 | OC[C@H]1O[C@H](O[C@H]2O[C@H](CO)[C@@H](O)[C@H](O)[C@H]2O)[C@H](O)[C@@H](O)[C@@H]1O [trehalose] | did not affect post cryopreservation survival | – | – | –
2 | C[S+](C)[O-] [DMSO, dimethyl sulfoxide] | – | highest CPA toxicity | – | –
3 | OCCO [EG, ethylene glycol] | – | least CPA toxicity | > 90 | highest survival post cryopreservation
4 | OC[C@H]1O[C@@](CO)(O[C@H]2O[C@H](CO)[C@@H](O)[C@H](O)[C@H]2O)[C@@H](O)[C@@H]1O [sucrose] | did not affect post cryopreservation survival | – | – | –
